These are literature values, as cited in paper PMC4158421, “Screening-based discovery of Aspergillus fumigatus plant-type chitinase inhibitors” (Febs Letters, 2014).

The data set has as its system A. fumigatus biofilm. Set-up: method as in PMID 23314962.

As for `CC(=O)Nc1nnc(S(N)(=O)=O)s1` [acetazolamide], the “effect on A. fumigatus biofilm biomass” value was “reduce A. fumigatus biofilm biomass”.
